Data from patent US11834401B2, “Treating and preventing diseases by modulating cell mechanics” (THE JOHNS HOPKINS UNIVERSITY, priority 2013, dated 2023).

Experiments:
Dictyostelium cells = experiment: Micropipette aspiration cortical tension, Dictyostelium; assay type: cell-based, Dictyostelium discoideum
Experimental: Micropipette aspiration was used for cortical tension and creep response measurements. Confocal imaging was performed on a Zeiss 510 Meta with a 63× (numerical aperture [NA] 1.4) objective (Carl Zeiss, Jena, Germany). Epifluorescence and TIRF imaging was performed in a 22° C. temperature controlled room with an Olympus IX81 microscope using a 40× (NA 1.3) or 60× (NA 1.49) objective and a 1.4× optovar (Olympus, Center Valley, Pa.), as previously described. Image analysis was performed with ImageJ (rsb.info.nih.gov/ij).
The instrumental and experimental setups have been previously described (Effler J C, et al., 2006; Kee Y-S, et al., 2013). Micropipette aspiration assays were all carried out in growth media with 0.1% DMSO. For cortical tension measurements of Dictyostelium cells, pressure was applied to the cell cortex with a micropipette (2-3 m radius, Rp) to the equilibrium pressure (ΔP) where the length of the cell inside the pipette (Lp) was equal to Rp. The effective cortical tension (Teff) was calculated by applying the Young-Laplace equation: ΔP=2Teff(1/Rp-1/Rc), where Rc is the radius of the cell and ΔP is the equilibrium pressure when Lp=Rp (Derganc J, et al., 2000; Octtaviani E, et al., 2006). For creep tests on mammalian strains, a constant aspiration stress was applied over 60 s. The micropipette radius was 3.5-4.5 m. For quantification, the Lp/Rp ratio values was measured every two seconds and plotted as a function of time. A10.7 and HEK293 cells could only be aspirated at a low pressure range (0.15 nN/μm^2), while HPDE, ASPC-1, and HL-60 cells could be aspirated at higher pressure ranges (0.25 nN/μm^2) because they were stiffer.

[1] = target: T1, Dictyostelium myosin II ADCT (Dictyostelium discoideum, UniProt P08799); experiment: In vitro myosin assembly assay, with or without 14-3-3; assay type: biochemical; settings: with or without purified 14-3-3
T1 construct: fused to the assembly domains of Dictyostelium myosin II (residues 1533-1823); 6xHis (N); mCherry (N); made in house; host or cells: E. coli BL-21 Star (DE3)
Description: (§1) The sedimentation assays were used to assess myosin II assembly in cells. The assembly assay used purified proteins (N-terminal 6×His tag (SEQ ID NO: 1), fused to the mCherry fluorophore, fused to the assembly domains of Dictyostelium myosin II (residues 1533-1823), human myosin IIA (residues 1722-1960), and human myosin IIB (residues 1729-1976), and 6×His-tagged (SEQ ID NO: 1) fused Dictyostelium 14-3-3). Purified chicken nonmuscle IIB heavy meromyosin (HMM) was used for in vitro motility.
Bacterial expression plasmids coding for an N-terminal 6×His tag (SEQ ID NO: 1), fused to the mCherry fluorophore, fused to the assembly domains of Dictyostelium myosin II (residues 1533-1823), human myosin IIA (residues 1722-1960), or human myosin IIB (residues 1729-1976) were generated using standard cloning techniques.
Dictyostelium 14-3-3 was also expressed in bacteria as a 6×His-tagged (SEQ ID NO: 1) fusion protein (Zhou Q et al., 2010). Proteins were expressed in BL-21 Star™ (DE3) (Invitrogen) E. coli in LB shaking culture overnight at room temperature. […] Protein purity was verified by SDS-PAGE followed by Coomassie Blue staining, and concentration was quantified by UV absorbance using the calculated extinction coefficient for each protein's amino acid sequence. […]

[2] = test system: chicken non-muscle IIB (NMIIB) HMM; experiment: In vitro motility assay (gliding actin filaments); assay type: biochemical; settings: 500 nM each alone; 250 nM each in 1:1 ratio
Description: as §1
The chicken non-muscle IIB (NMIIB) HMM construct (residues 1-1228, GenBank™ accession number M93676, no splice insert) was purified as previously described (Norstrom M F, et al., 2010). Motility assays were performed at 22° C. and imaged on Zeiss Axiovert 200 microscope with an Andor Luca camera. The flow cells were constructed using a glass slide, two pieces of double-sided tape, and nitrocellulose-coated coverslip. Flow cells were incubated with 0.05 mg/ml green fluorescent protein antibodies (MP Biomedicals, 0.05 mg/ml in assay buffer (AB) without DTT: 25 mM KCl, 25 mM Imidazole·HCl, pH 7.5, 1 mM K·EGTA, 4 mM MgCl2; 2 min incubation time), followed by a bovine serum albumin block (1 mg/ml in AB—as above with 10 mM DTT; 6 min incubation time). NMIIB was added to the flow cell at a concentration of 420 nM and incubated for 2 min. […]

T1 sequence (P08799 1533-1823): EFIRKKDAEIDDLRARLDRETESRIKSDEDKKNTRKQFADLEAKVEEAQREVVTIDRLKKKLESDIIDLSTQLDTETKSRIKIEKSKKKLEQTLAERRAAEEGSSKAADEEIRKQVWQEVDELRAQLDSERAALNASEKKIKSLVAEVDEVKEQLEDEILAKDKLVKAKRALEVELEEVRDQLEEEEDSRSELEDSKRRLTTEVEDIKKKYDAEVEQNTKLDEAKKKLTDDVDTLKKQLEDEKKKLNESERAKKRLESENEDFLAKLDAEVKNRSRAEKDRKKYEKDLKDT

| SMILES | effect on cortical tension (Dictyostelium cells; WT cells) | in vitro assembly vs DMSO control [1] | non-muscle myosin IIB velocity (gliding filament velocity of actin filaments) [2] | change in cortical tension, myosin II null cells (Dictyostelium cells; myoI null cells as printed) | change in cortical tension, S456L myosin cells (Dictyostelium cells; myoII::GFP-S456L cells) |
| --- | --- | --- | --- | --- | --- |
| Nc1ccc(Cl)c(Cl)c1 [3,4-DCA, 3,4-dichloroaniline] | had no effect | no significant change in in vitro assembly | no significant effect | – | – |
| CC(=O)c1ccc(O)cc1 [4-HAP, 4-hydroxyacetophenone] | – | no significant change in in vitro assembly | no significant effect | did not experience a similar shift in mechanics | did not have a change in cortical tension |
